Results on nine molecules are retold here after patent publication US11987788B2, “Methods and compositions for changing the composition of the skin microbiome using complex mixtures of bacterial strains” (S-Biomedic NV, priority 2015, dated 2024).

Broadly, the MIC is the lowest concentration found to suppress growth. A lower MIC goes with inhibition by little substance.

Data set [1] relates to Propionibacterium acnes (ATCC 6919). The experiment in a line: Minimum Inhibitory Concentration Assay. It is filed as cell-based. The settings on record: ATCC 6919 (A1), visible growth, duplicate. The protocol: (§1) The Minimum Inhibitory Concentration Assay assessed the in vitro antimicrobial potency of the test compound. […] 4 compounds were tested, which are commonly used in cosmetics or to treat acne for their effect on the growth of different P. acnes strains. The 4 tested compounds were glycolic acid, salicylic acid, lactic acid and hyaluronic acid. The first 3 are commonly used in products to treat acne, while the last one is a commonly used cosmetic compound. Any other compound can be tested the same way. The test substance was dissolved in water or DMSO (for salicylic acid) and 4 μl of the test substance was added to 196 μl of growth medium resulting in the highest tested compound concentration. Then this concentration was diluted by 2-fold serial titrations, for a total of 11 concentrations and the final vehicle concentration was 2 percent. Following incubation, the test plate was visually examined and each well was scored for growth or complete inhibition of growth; then the MIC was recorded. Each test substance was evaluated in duplicate. Vehicle-control and an active reference agent (clindamycin) were used as blank and positive controls, respectively. The following three strains were used to assess whether strain specific differences in the tolerance to these compounds could be observed: • Propionibacterium acnes (ATCC 11827)—A5 • Propionibacterium acnes (ATCC 29399) • Propionibacterium acnes (ATCC 6919)—A1 The final concentrations for each tested compound were: • 1. […] Lactic acid: 100% (13.4M): […]

Data set [2] relates to Propionibacterium acnes (ATCC 29399). The experiment in a line: Minimum Inhibitory Concentration Assay. The format is cell-based. To be noted: duplicate. The protocol:
as §1

Data set [3] deals with Propionibacterium acnes (ATCC 11827). As to the kind of experiment: Minimum Inhibitory Concentration Assay. The format is cell-based. To be noted: ATCC 11827 (A5), visible growth, duplicate. As to the method: as §1
Data set [4] deals with Seb E6/E7 sebocytes.
For data set [5], the system named is Seb E6/E7 sebocytes. As to the kind of experiment: Neutral lipid staining with HCS LipidTOX (lipid production). The format is cell-based. To be noted: 72 h stimulation; whole-well 5× and individual-cell 20× analysis. The protocol: An image at 5× magnification was taken from each well and then the relative fluorescence intensity quantified. Each condition was measured in triplicates. As a control, the cells were either unstimulated (blank) or stimulated with cis-9, cis-12 linoleic acid (not shown).
As a negative control, a non-stimulated blank was used and as positive control, the cells were stimulated for lipogenesis with cis-9, cis-12 linoleic acid.
Seb E6/E7 cells, which were seeded in 96-well plates and stimulated as described above were then analyzed for the induction lipid production. After 72 h of stimulation, the cells were stained with HCS LipidTOX deep red neutral lipid stain from Thermo Fisher (product no. H34477) according to the manufacturer's instructions. A final dilution of 1:450 of HCS LipidTOX dye in PBS was used for the staining. The amount of fluorescence was then evaluated using an inverted fluorescence microscope. In one approach, a complete well was imaged at 5× magnification and the total fluorescence in the image was quantified. A clear dose-dependent induction of lipid production was seen. […]
Alternatively, the fluorescent signal of individual cells, which were randomly selected from a higher magnification images, were quantified. 10 cells per image and 3 wells per condition were quantified. […]

A further data set deals with acne. The settings on record: McLane, 2001; cited from earlier work.
For the next data set, the system named is P. acnes. The settings on record: Allgaier et al., 1985; cited from earlier work.
Another data set concerns facial acne vulgaris. As to the kind of experiment: Pilot clinical study, lesion count and irritation evaluated by a dermatologist. It is filed as in vivo, human.
Setting [6] is: Cutibacterium acnes, ATCC29399, visible growth.

Values after ≈ are worked out from the molar mass of the structure shown. Where two headings read alike, the source gives them in different places. No end group written: not given here. Bounds are passed on as bounds.

Take `O=C(O)c1ccccc1O` [salicylic acid]: the MIC is more than 6 mM in data set [1] (Cutibacterium acnes, ATCC6919); more than 6 mM in data set [2] (setting [6]); more than 6 mM in data set [3] (Cutibacterium acnes, ATCC11827).

On to `CCCCC/C=C\C/C=C\CCCCCCCC(=O)O` [cis-9, cis-12 linoleic acid], for which the “cytotoxic effect (low XTT metabolic activity with high LDH activity)” value in the data set on Seb E6/E7 sebocytes [4] (5 days exposure, different concentrations, triplicates) was “no significant effect”. Further, the “induction of lipogenesis (relative fluorescence of neutral lipids)” value in the data set on Seb E6/E7 sebocytes [5] is “induce lipogenesis”.

Consider `O=C(O)CO` [Glycolic acid, glycolic acid], for which the MIC in data set [1] (Cutibacterium acnes, ATCC6919) was determined as 18 mM (≈ 1370 µg/mL); in data set [2] (setting [6]), 60 mM (≈ 4560 µg/mL); in data set [3] (Cutibacterium acnes, ATCC11827) it was 18 mM (≈ 1370 µg/mL).

Take `CCCCC/C=C\C=C\CCCCCCCCC(=O)O` [trans-10, cis 12 linoleic acid, trans-10, cis-12 linoleic acid]: in the data set with Seb E6/E7 sebocytes [4], the “cytotoxic effect (low XTT metabolic activity with high LDH activity)” value is on record as “clear dose-dependent cytotoxic effect”. Moreover, the “induction of lipogenesis (relative fluorescence of neutral lipids)” value in the data set on Seb E6/E7 sebocytes [5] is recorded as “dose-dependent induction of lipogenesis”.

On to `CC(O)C(=O)O` (centres unmarked) [lactic acid], for which the “MIC (inhibition of growth)” value was 0.2% in data set [1], 0.6% in data set [2] (visible growth) and 0.2% in data set [3].

Regarding hyaluronic acid, the MIC in data set [1], in data set [2] (visible growth) and in data set [3] was more than 6e-05 mM throughout.

As for `CC1=C(/C=C/C(C)=C/C=C/C(C)=C\C(=O)O)C(C)(C)CCC1` [Isotretinoin], the side effects result with acne was “causes skin irritation and also has teratogenic effects”.

For “Epidermin: lantibiotic, antibiotic-like peptide naturally produced by S. epidermidis (IASKFICTPGCAKTGSFNSYCC; also: lantibiotic: lanthionine-type bridges, places not given here; UniProt P08136 31-52, looked up)”, the “activity against P. acnes” value in the data set on P. acnes is “highly active”.

Take `O=C(OOC(=O)c1ccccc1)c1ccccc1` [Benzoyl Peroxide, Benzoyl peroxide]: in the data set with facial acne vulgaris (end of week 1, of 10 subjects), the “subjects with reduced lesions” value was found to be 4 subjects. The “subjects improved (dermatologist evaluation, lesions)” value in the data set with facial acne vulgaris (week 1 (day 7), end of 7-day Benzoyl Peroxide phase, 10 subjects) was 40%.
